Experimental data taken from patent US20230075856A1, “CYCLIC SULFAMIDE COMPOUNDS FOR TREATMENT OF HBV” (Assembly Biosciences, Inc., priority 2018, published 2023).

Test system: HBV viral load production from HepAD38 cells
Experiment: Viral production from HepAD38 cells: viral load in supernatant by qPCR of the HBV core sequence
Type: cell-based
Settings: 5 days incubation, qPCR of supernatant HBV DNA vs DMSO control, read-out: viral load lowering EC50 (Activity)
Procedure, shortened: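 HepAD38 cells seeded at 50,000/well in tetracycline-free medium with 2% FBS, treated with compounds (final top concentration 10 μM) for 5 days at 37 °C. Supernatant HBV DNA quantified by TaqMan qPCR of core sequence against HBV DNA standards, relative to DMSO controls; EC50 by four-parameter logistic fit.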

Q: Cc1cn(-c2ccccc2)nc1CNC(=O)C1CC(C(=O)Nc2ccc(F)c(C#N)c2)N(C)S(=O)(=O)N1 (single isomer, unassigned) [1134-ISOMER-B, N3-(3-cyano-4-fluoro-phenyl)-2-methyl-N5-[(4-methyl-1-phenyl-pyrazol-3-yl)methyl]-1,1-dioxo-1,2,6-thiadiazinane-3,5-dicarboxamide] was tested. Which EC50 did it give?
A: < 50 nM

Q: Which EC50 does the source give for Cc1nc(-c2ccccc2)sc1CNC(=O)C1CC(C(=O)Nc2ccc(F)c(C#N)c2)N(C)S(=O)(=O)N1 (single isomer, unassigned) [1136-ISOMER-B, N3-(3-cyano-4-fluoro-phenyl)-2-methyl-N5-[(4-methyl-2-phenyl-thiazol-5-yl)methyl]-1,1-dioxo-1,2,6-thiadiazinane-3,5-dicarboxamide] here?
A: 100 to 10000 nM

Q: For Cc1cn(-c2ccc(F)cc2)nc1CNC(=O)C1CC(C(=O)Nc2ccc(F)c(Cl)c2)N(C)S(=O)(=O)N1 (single isomer, unassigned) [1141-ISOMER-B, N3-(3-chloro-4-fluoro-phenyl)-N5-[[1-(4-fluorophenyl)-4-methyl-pyrazol-3-yl]methyl]-2-methyl-1,1-dioxo-1,2,6-thiadiazinane-3,5-dicarboxamide], which EC50 is on record?
A: 100 to 10000 nM

Q: How did the EC50 turn out when Cc1cn(-c2ccccc2F)nc1CNC(=O)C1CC(C(=O)Nc2ccc(F)c(Cl)c2)N(C)S(=O)(=O)N1 (single isomer, unassigned) [1142-ISOMER-B, N3-(3-chloro-4-fluoro-phenyl)-N5-[[1-(2-fluorophenyl)-4-methyl-pyrazol-3-yl]methyl]-2-methyl-1,1-dioxo-1,2,6-thiadiazinane-3,5-dicarboxamide] was run?
A: 100 to 10000 nM

Q: For CN1C(C(=O)Nc2ccc(F)c(Cl)c2)CC(C(=O)NCc2cc(-c3ccc(F)cc3)nn2C)NS1(=O)=O (single isomer, unassigned) [1143-ISOMER-B, N3-(3-chloro-4-fluoro-phenyl)-N5-[[5-(4-fluorophenyl)-2-methyl-pyrazol-3-yl]methyl]-2-methyl-1,1-dioxo-1,2,6-thiadiazinane-3,5-dicarboxamide], which EC50 is on record?
A: < 50 nM

Q: Which EC50 does the source give for Cc1cn(-c2ccc(F)cc2F)nc1CNC(=O)C1CC(C(=O)Nc2ccc(F)c(Cl)c2)N(C)S(=O)(=O)N1 (single isomer, unassigned) [1144-ISOMER-B, N3-(3-chloro-4-fluoro-phenyl)-N5-[[1-(2,4-difluorophenyl)-4-methyl-pyrazol-3-yl]methyl]-2-methyl-1,1-dioxo-1,2,6-thiadiazinane-3,5-dicarboxamide] here?
A: 100 to 10000 nM

Q: Which EC50 does the source give for CN1C(C(=O)Nc2ccc(F)c(Cl)c2)CC(C(=O)NCc2cn(-c3ccccc3)cn2)NS1(=O)=O (single isomer, unassigned) [1145-ISOMER-B, N3-(3-chloro-4-fluoro-phenyl)-2-methyl-1,1-dioxo-N5-[(1-phenylimidazol-4-yl)methyl]-1,2,6-thiadiazinane-3,5-dicarboxamide] here?
A: 100 to 10000 nM

Q: How did the EC50 turn out when Cc1c(CNC(=O)C2CC(C(=O)Nc3ccc(F)c(Cl)c3)N(C)S(=O)(=O)N2)noc1-c1ccccc1 (single isomer, unassigned) [1150-ISOMER-B, N3-(3-chloro-4-fluoro-phenyl)-2-methyl-N5-[(4-methyl-5-phenyl-isoxazol-3-yl)methyl]-1,1-dioxo-1,2,6-thiadiazinane-3,5-dicarboxamide] was run?
A: 100 to 10000 nM

Q: How did the EC50 turn out when CN1C(C(=O)Nc2ccc(F)c(Cl)c2)CC(C(=O)NCc2cc(-c3ccc(F)cc3)n(C)n2)NS1(=O)=O (single isomer, unassigned) [1151-ISOMER-B, N3-(3-chloro-4-fluoro-phenyl)-N5-[[5-(4-fluorophenyl)-1-methyl-pyrazol-3-yl]methyl]-2-methyl-1,1-dioxo-1,2,6-thiadiazinane-3,5-dicarboxamide] was run?
A: 100 to 10000 nM

Same assay, conditions: Hepatitis B virus, HePAD38, 120 h, 5 days incubation, qPCR of supernatant HBV DNA vs DMSO control, read-out: viral load lowering EC50 (Activity)

Q: Which EC50 does the source give for Cc1nc(-c2ccccc2)sc1CNC(=O)C1CC(C(=O)Nc2ccc(F)c(C#N)c2)N(C)S(=O)(=O)N1 (single isomer, unassigned) [1136-ISOMER-A, N3-(3-cyano-4-fluoro-phenyl)-2-methyl-N5-[(4-methyl-2-phenyl-thiazol-5-yl)methyl]-1,1-dioxo-1,2,6-thiadiazinane-3,5-dicarboxamide] here?
A: < 50 nM

Q: How did the EC50 turn out when Cc1cn(-c2ccc(F)cc2)nc1CNC(=O)C1CC(C(=O)Nc2ccc(F)c(Cl)c2)N(C)S(=O)(=O)N1 (single isomer, unassigned) [1141-ISOMER-A, N3-(3-chloro-4-fluoro-phenyl)-N5-[[1-(4-fluorophenyl)-4-methyl-pyrazol-3-yl]methyl]-2-methyl-1,1-dioxo-1,2,6-thiadiazinane-3,5-dicarboxamide] was run?
A: < 50 nM

Q: Cc1cn(-c2ccccc2F)nc1CNC(=O)C1CC(C(=O)Nc2ccc(F)c(Cl)c2)N(C)S(=O)(=O)N1 (single isomer, unassigned) [1142-ISOMER-A, N3-(3-chloro-4-fluoro-phenyl)-N5-[[1-(2-fluorophenyl)-4-methyl-pyrazol-3-yl]methyl]-2-methyl-1,1-dioxo-1,2,6-thiadiazinane-3,5-dicarboxamide] was tested. Which EC50 did it give?
A: < 50 nM

Q: With CN1C(C(=O)Nc2ccc(F)c(Cl)c2)CC(C(=O)NCc2cc(-c3ccc(F)cc3)nn2C)NS1(=O)=O (single isomer, unassigned) [1143-ISOMER-A, N3-(3-chloro-4-fluoro-phenyl)-N5-[[5-(4-fluorophenyl)-2-methyl-pyrazol-3-yl]methyl]-2-methyl-1,1-dioxo-1,2,6-thiadiazinane-3,5-dicarboxamide] as the molecule, how does the EC50 read?
A: 100 to 10000 nM

Q: Which EC50 does the source give for Cc1cn(-c2ccc(F)cc2F)nc1CNC(=O)C1CC(C(=O)Nc2ccc(F)c(Cl)c2)N(C)S(=O)(=O)N1 (single isomer, unassigned) [1144-ISOMER-A, N3-(3-chloro-4-fluoro-phenyl)-N5-[[1-(2,4-difluorophenyl)-4-methyl-pyrazol-3-yl]methyl]-2-methyl-1,1-dioxo-1,2,6-thiadiazinane-3,5-dicarboxamide] here?
A: < 50 nM

Q: CN1C(C(=O)Nc2ccc(F)c(Cl)c2)CC(C(=O)NCc2cn(-c3ccccc3)cn2)NS1(=O)=O (single isomer, unassigned) [1145-ISOMER-A, N3-(3-chloro-4-fluoro-phenyl)-2-methyl-1,1-dioxo-N5-[(1-phenylimidazol-4-yl)methyl]-1,2,6-thiadiazinane-3,5-dicarboxamide] was tested. Which EC50 did it give?
A: < 50 nM

Q: With CN1C(C(=O)Nc2ccc(F)c(Cl)c2)CC(C(=O)NCc2cc(-c3ccccc3)on2)NS1(=O)=O (single isomer, unassigned) [1149-ISOMER-A, N3-(3-chloro-4-fluoro-phenyl)-2-methyl-1,1-dioxo-N5-[(5-phenylisoxazol-3-yl)methyl]-1,2,6-thiadiazinane-3,5-dicarboxamide] as the molecule, how does the EC50 read?
A: < 50 nM

Q: How did the EC50 turn out when Cc1c(CNC(=O)C2CC(C(=O)Nc3ccc(F)c(Cl)c3)N(C)S(=O)(=O)N2)noc1-c1ccccc1 (single isomer, unassigned) [1150-ISOMER-A, N3-(3-chloro-4-fluoro-phenyl)-2-methyl-N5-[(4-methyl-5-phenyl-isoxazol-3-yl)methyl]-1,1-dioxo-1,2,6-thiadiazinane-3,5-dicarboxamide] was run?
A: < 50 nM

Q: For CN1C(C(=O)Nc2ccc(F)c(Cl)c2)CC(C(=O)NCc2cc(-c3ccc(F)cc3)n(C)n2)NS1(=O)=O (single isomer, unassigned) [1151-ISOMER-A, N3-(3-chloro-4-fluoro-phenyl)-N5-[[5-(4-fluorophenyl)-1-methyl-pyrazol-3-yl]methyl]-2-methyl-1,1-dioxo-1,2,6-thiadiazinane-3,5-dicarboxamide], which EC50 is on record?
A: < 50 nM
